Measured values taken from publication PMC11167782, “Tunlametinib (HL-085) plus vemurafenib in patients with advanced BRAF V600-mutant solid tumors: an open-label, single-arm, multicenter, phase I study” (Experimental Hematology & Oncology, 2024).

Legend:
patients = test system: patients; design: method as in PMID 21639808; details: phase III trial; cited from earlier work
CYP3A4 = test system: CYP3A4; design: method as in earlier work; details: cited from earlier work
[1] = Phase I study: plasma pharmacokinetics (UPLC-MS/MS); details: for AUC(0-t) / AUC / Cmax / Tmax: human, plasma; for AUC(0-t): AUClast; for AUC(0-t) / AUC / Cmax: mean (SD); for AUC: AUCtau
Experimental: PK assessments were performed using a validated ultra-performance liquid chromatography-tandem mass spectrometry method.
All samples analyzed within established storage stability periods.

BRAF V600-mutant NSCLC = details: monotherapy; cited from earlier work
BRAF V600-mutant PTC = test system: BRAF V600-mutant PTC; design: method as in PMID 35658604; details: monotherapy; cited from earlier work
[2] = Multiple dose, Tunlametinib 9mg BID + vemurafenib 720mg BID
[3] = Multiple dose, Tunlametinib 9mg BID + vemurafenib 960mg BID
[4] = Multiple dose, Tunlametinib 12mg BID + vemurafenib 720mg BID
[5] = Multiple dose, Tunlametinib 12mg BID + vemurafenib 960mg BID
[6] = Multiple dose, Vemurafenib 720mg BID Total
[7] = Multiple dose, Vemurafenib 960mg Total
[8] = Single dose, Tunlametinib 9mg BID + vemurafenib 720mg BID
[9] = Single dose, Tunlametinib 9mg BID + vemurafenib 960mg BID
[10] = Single dose, Tunlametinib 12mg BID + vemurafenib 720mg BID
[11] = Single dose, Tunlametinib 12mg BID + vemurafenib 960mg BID
[12] = 720 mg, Multiple dose, Vemurafenib 720mg BID Total
[13] = 720 mg, Single dose, Vemurafenib 720mg BID Total
[14] = 960 mg, Multiple dose, Vemurafenib 960mg Total
[15] = 960 mg, Single dose, Vemurafenib 960mg Total
[16] = vemurafenib, multiple administrations, across doses

## CCCS(=O)(=O)Nc1ccc(F)c(C(=O)c2c[nH]c3ncc(-c4ccc(Cl)cc4)cc23)c1F [Vemurafenib, vemurafenib]
patients
  Incidence of photosensitivity: 30%
CYP3A4
  Main metabolizing enzyme: metabolized mainly by CYP3A4
[1]; [2]
  Cavg, mean (SD): 29792.81 (1092.82) ng/mL
  Fluctuation%, mean (SD): 37.17 (4.45) %
  RAUClast (accumulation ratio), mean (SD): 11.76 (5.15)
  RCmax (accumulation ratio), mean (SD): 8.92 (3.76)
  AUC(0-t): 376 µg·h/mL
  AUC: 358 µg·h/mL
  Cmax: 37400 ng/mL
[1]; [3]
  Cavg, mean (SD): 47113.74 (NC) ng/mL
  Fluctuation%, mean (SD): 19.95 (NC) %
  RAUClast (accumulation ratio), mean (SD): 36.26 (58.5)
  RCmax (accumulation ratio), mean (SD): 16.01 (16.13)
  AUC(0-t): 530 µg·h/mL
  AUC: 565 µg·h/mL
  Cmax: 49200 ng/mL
[1]; [4]
  Cavg, mean (SD): 34081.99 (20393.59) ng/mL
  Fluctuation%, mean (SD): 36.48 (16.11) %
  RAUClast (accumulation ratio), mean (SD): 10.61 (4.88)
  RAUCtau (accumulation ratio), mean (SD): 13.29 (4.87)
  RCmax (accumulation ratio), mean (SD): 8.54 (4.03)
  AUC(0-t): 379 µg·h/mL
  AUC: 409 µg·h/mL
  Cmax: 36800 ng/mL
[1]; [5]
  Cavg, mean (SD): 28324.83 (NC) ng/mL
  Fluctuation%, mean (SD): 25.42 (NC) %
  RAUClast (accumulation ratio), mean (SD): 10.75 (2.55)
  RCmax (accumulation ratio), mean (SD): 8.23 (1.79)
  AUC(0-t): 456 µg·h/mL
  AUC: 340 µg·h/mL
  Cmax: 42800 ng/mL
[1]; [6]
  Cavg, mean (SD): 32652.26 (15958.81) ng/mL
  Fluctuation%, mean (SD): 36.71 (12.64) %
  RAUClast (accumulation ratio), mean (SD): 11.10 (4.84)
  RAUCtau (accumulation ratio), mean (SD): 13.29 (4.87)
  RCmax (accumulation ratio), mean (SD): 8.70 (3.77)
[1]; [7]
  Cavg, mean (SD): 45227.97 (17802.57) ng/mL
  Fluctuation%, mean (SD): 29.65 (16.23) %
  RAUClast (accumulation ratio), mean (SD): 23.92 (39.19)
  RAUCtau (accumulation ratio), mean (SD): 14.07 (NC)
  RCmax (accumulation ratio), mean (SD): 13.22 (11.54)
[1]; [8]
  AUC_%Extrap, mean (SD): 56.66 (6.57) %
  AUC(0-t): 45.8 µg·h/mL
  AUC: 55.2 µg·h/mL
  Cmax: 5710 ng/mL
[1]; [9]
  AUC_%Extrap, mean (SD): 57.98 (NC) %
  AUC(0-t): 65.3 µg·h/mL
  AUC: 118 µg·h/mL
  Cmax: 7360 ng/mL
[1]; [10]
  AUC_%Extrap, mean (SD): 61.30 (6.78) %
  AUC(0-t): 37.2 µg·h/mL
  AUC: 38.2 µg·h/mL
  Cmax: 4610 ng/mL
[1]; [11]
  AUC_%Extrap, mean (SD): 64.58 (NC) %
  AUC(0-t): 47.1 µg·h/mL
  AUC: 37.7 µg·h/mL
  Cmax: 5710 ng/mL
[1]; Single dose, Vemurafenib 720mg BID Total
  AUC_%Extrap, mean (SD): 60.37 (6.66) %
[1]; Single dose, Vemurafenib 960mg Total
  AUC_%Extrap, mean (SD): 61.29 (11.94) %
[1]; [12]
  AUC(0-t): 372 µg·h/mL
  AUC: 392 µg·h/mL
  Cmax: 36600 ng/mL
[1]; [13]
  AUC(0-t): 39.3 µg·h/mL
  AUC: 41 µg·h/mL
  Cmax: 4890 ng/mL
[1]; 720 mg, Tmax, median (range), Multiple dose, Vemurafenib 720mg BID Total
  Tmax: 2.07 h
[1]; 720 mg, Tmax, median (range), Single dose, Vemurafenib 720mg BID Total
  Tmax: 4 h
[1]; [14]
  AUC(0-t): 503 µg·h/mL
  AUC: 543 µg·h/mL
  Cmax: 48300 ng/mL
[1]; [15]
  AUC(0-t): 50.5 µg·h/mL
  AUC: 61.2 µg·h/mL
  Cmax: 6220 ng/mL
[1]; 960 mg, Tmax, median (range), Multiple dose, Vemurafenib 960mg Total
  Tmax: 3.99 h
[1]; 960 mg, Tmax, median (range), Single dose, Vemurafenib 960mg Total
  Tmax: 4.01 h
[1]; Tmax, median (range), Multiple dose, Tunlametinib 9mg BID + vemurafenib 720mg BID
  Tmax: 3.92 h
[1]; Tmax, median (range), Multiple dose, Tunlametinib 9mg BID + vemurafenib 960mg BID
  Tmax: 4.07 h
[1]; Tmax, median (range), Multiple dose, Tunlametinib 12mg BID + vemurafenib 720mg BID
  Tmax: 1.93 h
[1]; Tmax, median (range), Multiple dose, Tunlametinib 12mg BID + vemurafenib 960mg BID
  Tmax: 3.95 h
[1]; Tmax, median (range), Single dose, Tunlametinib 9mg BID + vemurafenib 720mg BID
  Tmax: 4 h
[1]; Tmax, median (range), Single dose, Tunlametinib 9mg BID + vemurafenib 960mg BID
  Tmax: 3.96 h
[1]; Tmax, median (range), Single dose, Tunlametinib 12mg BID + vemurafenib 720mg BID
  Tmax: 4 h
[1]; Tmax, median (range), Single dose, Tunlametinib 12mg BID + vemurafenib 960mg BID
  Tmax: 4.07 h
[1]; oral, Median Tmax, vemurafenib, single-dose
  Tmax: ~4 h
[1]; [16]
  Average accumulation ratio based on AUClast: 10.6 to 36.3
  Average accumulation ratio based on AUCtau: 13.3 to 14.1
  Average accumulation ratio based on Cmax: 8.2 to 16.0

## CC(C)(C)c1nc(-c2cccc(NS(=O)(=O)c3c(F)cccc3F)c2F)c(-c2ccnc(N)n2)s1 [dabrafenib]
BRAF V600-mutant NSCLC
  Median PFS: 5.5 months
  ORR: 33%
BRAF V600-mutant PTC
  ORR: 35%
